These results are taken from patent publication US5902794A (priority 1997, dated 1999).

Series [1] has as its system LS-174T colon cancer cells. The series can be described thus: cell cycle analysis, LS-174T. In kind it is cell-based, human. The settings on record: 8-Cl 10 μM, 3 days, two separate experiments. The method, then:
(§1) DNA histograms were generated on FACS II by using the DNA intercalating dye propidium iodide as described by Braylan et al. (Cytometry 2: 337-343, 1982). The percentage of cells in each cycle phase was calculated by using a PDP-11/34 computer and software as described by Neckers et al. (Mol. Cell. Biol. 6: 4244-4250, 1986).
Breast (MCF-7, MDA-MB-231) and colon (LS-174T) cancer cells in
log phase (untreated control) and 3 days after treatment with
(5 μM) were analyzed for DNA content by flow cytometric analysis

Series [2] has as its system transplantable DMBA-1 and MNA-2 rat mammary carcinomas. The series can be described thus: short-term assays with transplantable rat mammary carcinomas. Type of series: in vivo. Particulars: 10-mg pellet, within one week.
For another series, the system named is murine leukemia L1210. The series can be described thus: life span of L1210-inoculated BDF1 mice. In kind it is in vivo, mouse. From the text: | Infusions by Harvard pumps.
For series [3], the system named is MCF-7 ras breast cancer cell line. The series can be described thus: synergistic growth inhibition by C-6 and C-8 analogue combination. In kind it is cell-based. Particulars: Homo sapiens, MCF7; alone, 1.0 μM; read-out: percentage growth inhibition of analogue added alone. The protocol:
(§2) All breast cancer cell lines were grown in IMEM supplemented with 10% fetal bovine serum, 20 mM HEPES, penicillin-streptomycin, and extra glutamine. Colon carcinoma cell lines were grown in EMEM supplemented with 10% FBS, EMEM, NEAA, HEPES 20 mM, extra glutamine, and penicillin-streptomycin. The cells were grown at 37° C. in humidified incubators in an atmosphere of 5% CO2.
(§3) For cell growth experiments, 2-3×10^5 cells/60 mm dish were seeded, and 24 hours later (Day 0), the medium was removed, and fresh medium and the additives were added then and every 48 hours thereafter The compounds of the present invention were added using 100× concentrated stock solutions. At desired times, cell counts in duplicate were performed on a Coulter counter after harvesting the cells with gentle trypsinization.
Synergism quotient was defined as the net growth inhibitory effect of the analogue combination divided by the sum of the net analogue effects on growth inhibition A quotient of >1 indicates a synergistic effect, while a quotient of <1 indicates an antagonistic effect.
Synergism of growth inhibition was determined by treatment of
cells with C-6 analogues and C-8 analogues alone and in combination at
Day 0 and Day 2 and counting the cell number at Day 4

Another series deals with HL-60 cells. Briefly: differentiation markers (surface antigens) in HL-60 cells. In kind it is cell-based, human. Particulars: three days.
The subject of series [4] is DMBA-induced mammary carcinomas. Briefly: in vivo growth of DMBA-induced mammary carcinomas in rats. Details: species or system rat. The method, then: […] |DMBA-induced mammary carcinomas in rats […] | 10 mg. cholesterol), was implanted on day 0 and day 14.
Series [5] relates to breast and colon cancer cell lines. The series can be described thus: cell cycle progression of breast and colon cancer cell lines. Type of series: cell-based, human. The settings on record: vs untreated control cells. The method, then:
as §1
A determination was made whether the reduced cell proliferation observed in the cancer cell lines after treatment with the compounds of the present invention is due to a specific block in one phase of the cell cycle.

For a further series, the system named is c-myc protein. Briefly: c-myc protein level, Western blotting (FIG. 9B). The settings on record: 5 micromol/L, three days. Type of series: cell-based, human. The protocol:
The cells were grown in suspension culture in RPMI 1640 medium supplemented with 10% fetal bovine serum, penicillin (50 U/ml), streptomycin ([…]), 10 mmol/L HEPES buffer, and extra glutamine. […] Surface antigen analysis of HL-60 cells was performed by flow cytometry using a panel of monoclonal antibodies reactive with either myeloid cells or monocytic cells. Terminal deoxynucleotidyl transferase (TdT) was assayed by an immunoperoxidase method using a TdT fluorescence kit. Western blotting of c-myc protein was performed using c-myc antibody 15206D11 (Scripps Clinic and Research Foundation, LaJolla, Calif.).
M marker proteins of known molecular weight. […] The resulting supernatants were used as cell lysates. […] ND=nondetectable.
On the technique in general: Immunoblotting shows a protein as a band on a membrane.

A further series deals with MDA-MB-231. The series can be described thus: growth of MDA-MB-231 cells. Type of series: cell-based. Particulars: Homo sapiens, MDA-MB-231, 72 h; 10 microM, 3 days. The method, then:
M is marker proteins of known molecular weight.
as §2, §3

The next series deals with HL-60. Briefly: growth inhibition of HL-60. Type of series: cell-based, human.

Consider `Nc1ncnc2c1nc(Cl)n2[C@@H]1O[C@@H]2COP(=O)(O)O[C@H]2[C@H]1O` [8-Cl-cAMP], for which, in series [1], the “% Cell population in G1” value is 63,53%, the “% Cell population in G2 M” value was 22,25% and the “% Cell population in S” value is 15,22%. Also, the activity at 10 µM in series [1] (Homo sapiens, LS174T, 72 h, read-out: % Growth) was found to be 30.3%. For the same molecule, the growth inhibition in series [2] was 40-50%. Also, the antitumor effect result in the series with murine leukemia L1210 (104 mg/kg bolus injection, seven consecutive days) is reported as “no antitumor effect”. Moreover, in the series with murine leukemia L1210 (104 mg/kg bolus, seven consecutive days), the “tolerability in L1210-bearing mice” value is “tolerated”. The “increase in mean life span” value in the series on murine leukemia L1210 (104 mg/kg/day constant infusion, five days) was found to be 37%. For the same molecule, in series [3], the inhibition (as a rule, the change of the read-out against control, counted positive when it falls) at 1 µM turned out to be 20%. Further, in the series on HL-60 cells, the “markers of immature progenitor cells (My7, My9), in words” value is “decrease in markers related to the immature progenitor cells” and the “monocyte-specific surface antigens (MO2, OKM5), in words” value is “marked increase in the expression”. In addition, the “tumor growth, in words” value in series [4] (10 mg pellet implanted twice every two weeks) is listed as “completely stopped tumor growth”. Besides, the “tumor regression within 30 days” value in [4] (within 30 days) is roughly 100%. Besides, in series [5], the “fractions of cells in G1, S and G2/M phases, in words” value was “not appreciably different”. Moreover, in the series with c-myc protein, the “c-myc protein level, in words” value was “marked reduction of c-myc protein level”. Also, the activity at 10 µM in the series with MDA-MB-231 amounted to 45%. Also, the “growth inhibition (footnote)” value in the series with HL-60 (20 μmol/L) is listed as “Seventy percent growth inhibition”. Further, the IC50 – broadly, the concentration needed to halve the response being measured – in the series on HL-60 (Homo sapiens, HL-60) came to 100 µM.
